One experiment has as its target T1, Cathepsin G (Homo sapiens, UniProt P08311).
T1 sequence (P08311 whole entry): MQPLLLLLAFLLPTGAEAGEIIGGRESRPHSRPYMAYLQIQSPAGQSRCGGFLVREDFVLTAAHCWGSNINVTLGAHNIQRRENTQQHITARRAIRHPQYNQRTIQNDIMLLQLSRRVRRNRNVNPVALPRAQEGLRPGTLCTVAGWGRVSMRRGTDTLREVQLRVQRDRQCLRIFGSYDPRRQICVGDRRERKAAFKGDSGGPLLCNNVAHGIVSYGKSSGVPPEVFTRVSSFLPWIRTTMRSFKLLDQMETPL
In words: Inhibitory activity against human neutrophil cathepsin G.

Another experiment deals with T2, Chymase (Homo sapiens, UniProt P23946).
T2 sequence (P23946 whole entry): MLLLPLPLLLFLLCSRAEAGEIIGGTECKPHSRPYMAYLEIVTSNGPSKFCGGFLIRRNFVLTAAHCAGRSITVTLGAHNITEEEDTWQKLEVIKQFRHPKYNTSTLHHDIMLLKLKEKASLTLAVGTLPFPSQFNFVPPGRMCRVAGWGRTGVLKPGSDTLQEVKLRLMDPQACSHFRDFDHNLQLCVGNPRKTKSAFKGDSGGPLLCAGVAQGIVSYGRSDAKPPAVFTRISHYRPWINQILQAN
Kind of experiment: Inhibitory activity against human heart chymase in vitro.

The target in the next experiment is Chymotrypsinogen A (Bos taurus, UniProt P00766). Kind of experiment: Inhibitory activity against bovine pancreas alpha-chymotrypsin in vitro.

As for `O=C1CN(c2ccc(Cl)c(Cl)c2)C(=O)N1S(=O)(=O)c1ccc(Cl)c(Cl)c1`, the results for the IC50 at Cathepsin G, on Chymase and on Chymotrypsinogen A were 3.7 µM, 0.17 µM and 3.7 µM, respectively.

`N#Cc1cccc(S(=O)(=O)N2C(=O)CN(c3ccccc3)C2=O)c1` yielded a concentration for half-maximal inhibition (IC50) against Chymotrypsinogen A of 0.73 µM.

For `O=C1CN(c2ccccc2)C(=O)N1S(=O)(=O)c1ccc([N+](=O)[O-])cc1`, the IC50 against Cathepsin G came to 6.5 µM; on Chymotrypsinogen A, 8 µM.

For `O=C1CN(c2ccccc2)C(=O)N1S(=O)(=O)c1ccc(Oc2ccccc2)cc1`, the concentration for half-maximal inhibition (IC50) came to 3.7 µM at Cathepsin G and 8 µM on Chymotrypsinogen A.

With `O=C1CN(c2cccc(Cl)c2)C(=O)N1S(=O)(=O)c1ccc(Cl)cc1`, the half-inhibitory concentration (IC50) was determined as 0.066 µM at Chymase and 0.2 µM against Chymotrypsinogen A.

Regarding `Cc1ccc(N2CC(=O)N(S(=O)(=O)c3ccc(Cl)c(Cl)c3)C2=O)cc1C`, the figures for the IC50 on Chymase and against Chymotrypsinogen A were 0.02 µM and 63 µM, respectively.

On to `O=C1CN(c2ccccc2Cl)C(=O)N1S(=O)(=O)c1ccc(Cl)cc1`, for which the figures for the IC50 at Cathepsin G, on Chymase and at Chymotrypsinogen A were 2 µM, 0.22 µM and 20 µM, respectively.

As to `O=C1CN(c2ccccc2)C(=O)N1S(=O)(=O)c1ccc(Cl)c(Cl)c1`, the IC50 against Chymase turned out to be 0.018 µM; against Chymotrypsinogen A, 3.8 µM.

As to `O=C(O)c1ccc(S(=O)(=O)N2C(=O)CN(c3ccccc3)C2=O)cc1`, the IC50 on Cathepsin G is 1.9 µM; against Chymotrypsinogen A it was 44 µM.

For `O=C1CN(c2ccccc2Oc2ccccc2)C(=O)N1S(=O)(=O)c1ccc(Cl)cc1`, the concentration for half-maximal inhibition (IC50) worked out at 5.9 µM at Cathepsin G and 37 µM against Chymotrypsinogen A.

On to `CN1CCN(C(=O)c2ccc(N3CC(=O)N(S(=O)(=O)c4ccc(Cl)cc4)C3=O)cc2)CC1`, for which the IC50 on Cathepsin G was over 100 µM; on Chymase, 27 µM; on Chymotrypsinogen A, over 100 µM.

For `O=C1CN(c2ccccc2)C(=O)N1S(=O)(=O)c1ccc(F)cc1`, the IC50 amounted to 1.5 µM against Cathepsin G, 0.37 µM at Chymase and 2.6 µM at Chymotrypsinogen A.

Turning to `CC(=O)Nc1ccc(N2CC(=O)N(S(=O)(=O)c3ccc(Cl)cc3)C2=O)cc1`, the IC50 on Cathepsin G, at Chymase and against Chymotrypsinogen A was over 100 µM throughout.

With `O=C1CN(c2ccccc2)C(=O)N1S(=O)(=O)c1ccc(Br)cc1`, the IC50 against Chymase came to 0.17 µM; on Chymotrypsinogen A, 2.4 µM.

As to `Cc1ccc(S(=O)(=O)N2C(=O)CN(c3ccccc3)C2=O)cc1C`, the values for the IC50 against Chymase and against Chymotrypsinogen A were 0.03 µM and 2 µM, respectively.

As to `COc1ccc(S(=O)(=O)N2C(=O)CN(c3ccccc3)C2=O)cc1OC`, the results for the IC50 against Cathepsin G and at Chymotrypsinogen A were 4.1 µM and over 100 µM, respectively.

As to `CN1CCN(C(=O)c2cccc(S(=O)(=O)N3C(=O)CN(c4ccccc4)C3=O)c2)CC1`, the IC50 was determined as 4.8 µM at Cathepsin G, 0.9 µM at Chymase and 1.4 µM against Chymotrypsinogen A.

`O=C(O)c1ccccc1N1CC(=O)N(S(=O)(=O)c2ccc(Cl)cc2)C1=O` displayed an IC50 at Chymotrypsinogen A of 73 µM.

Compound `Cc1ccc(N2CC(=O)N(S(=O)(=O)c3ccc(C)c(C)c3)C2=O)cc1C` came in with a half-inhibitory concentration (IC50) against Chymotrypsinogen A of over 100 µM.

For `COc1ccc(S(=O)(=O)N2C(=O)CN(c3ccc(C)c(C)c3)C2=O)cc1OC`, the IC50 is over 100 µM on Cathepsin G, 0.022 µM against Chymase and over 100 µM at Chymotrypsinogen A.

On to `O=C(OCN1C(=O)CN(c2ccccc2)C1=O)c1ccccc1`, for which the half-inhibitory concentration (IC50) against Cathepsin G, at Chymase and against Chymotrypsinogen A was over 100 µM throughout.

`O=C1CN(c2ccccc2)C(=O)N1S(=O)(=O)c1ccccc1Cl`: the values for the concentration for half-maximal inhibition (IC50) against Cathepsin G, against Chymase and against Chymotrypsinogen A were 2.2 µM, 1.1 µM and 1.2 µM, respectively.

At Chymotrypsinogen A, `COC(=O)c1ccc(S(=O)(=O)N2C(=O)CN(c3ccccc3)C2=O)cc1` had an IC50 of 1.8 µM.

As to `Cc1ccccc1S(=O)(=O)N1C(=O)CN(c2ccccc2)C1=O`, the figures for the IC50 against Cathepsin G, against Chymase and at Chymotrypsinogen A were 1.8 µM, 1.8 µM and 1.1 µM, respectively.

With `N#Cc1ccc(S(=O)(=O)N2C(=O)CN(c3ccccc3)C2=O)cc1`, the concentration for half-maximal inhibition (IC50) at Chymotrypsinogen A worked out at 15 µM.

For `O=C1CN(c2ccc(Cl)c(Cl)c2)C(=O)N1S(=O)(=O)c1ccc(Cl)cc1`, the IC50 against Cathepsin G amounted to 22 µM; against Chymase, 0.023 µM; against Chymotrypsinogen A, 4 µM.

As for `COc1ccc(N2CC(=O)N(S(=O)(=O)c3ccc(Cl)cc3)C2=O)cc1OC`, the IC50 at Cathepsin G was over 100 µM; at Chymase it was 14 µM; at Chymotrypsinogen A, over 100 µM.

Take `O=C1CN(C2CCCCC2)C(=O)N1S(=O)(=O)c1ccc(Cl)cc1`: the results for the half-maximal inhibitory concentration (IC50) on Chymase and against Chymotrypsinogen A were 35 µM and 30 µM, respectively.

With `O=C(O)c1cccc(N2CC(=O)N(S(=O)(=O)c3ccc(Cl)cc3)C2=O)c1`, the IC50 on Cathepsin G and against Chymotrypsinogen A was over 100 µM each time.

Turning to `COC(=O)c1cccc(S(=O)(=O)N2C(=O)CN(c3ccccc3)C2=O)c1`, the concentration for half-maximal inhibition (IC50) on Chymotrypsinogen A is 1.7 µM.

For `O=C1CN(c2ccccc2)C(=O)N1S(=O)(=O)c1ccccc1`, the 50% inhibitory concentration (IC50) against Cathepsin G was found to be 4.5 µM; against Chymotrypsinogen A it was 1.4 µM.

Turning to `O=C(O)c1cccc(S(=O)(=O)N2C(=O)CN(c3ccccc3)C2=O)c1`, the IC50 worked out at 1 µM against Cathepsin G and 8.5 µM at Chymotrypsinogen A.

With `O=C1CN(c2ccccc2)C(=O)N1S(=O)(=O)c1cccc(Cl)c1`, the IC50 against Cathepsin G was 2.5 µM; on Chymase it was 0.13 µM; at Chymotrypsinogen A, over 100 µM.

In the case of `O=C1CN(c2ncccn2)C(=O)N1S(=O)(=O)c1ccc(Cl)cc1`, the values for the IC50 at Chymase and at Chymotrypsinogen A were 33 µM and 52 µM, respectively.

On to `COC(=O)Cc1cccc(S(=O)(=O)N2C(=O)CN(c3ccccc3)C2=O)c1`, for which the values for the half-inhibitory concentration (IC50) against Cathepsin G and against Chymotrypsinogen A were 5.4 µM and 4 µM, respectively.

For the compound `COC(=O)Cc1ccc(S(=O)(=O)N2C(=O)CN(c3ccccc3)C2=O)cc1`, the IC50 on Cathepsin G turned out to be 6.5 µM; against Chymotrypsinogen A, 11 µM.

For `Cc1ccc(N2CC(=O)N(S(=O)(=O)c3ccc(Cl)cc3)C2=O)cc1C`, the IC50 at Cathepsin G stood at 3.7 µM; on Chymase, 0.035 µM; on Chymotrypsinogen A, 43 µM.

As to `O=C1CN(c2ccccc2)C(=O)N1S(=O)(=O)c1ccc(Cl)cc1`, the IC50 against Chymotrypsinogen A was 1.1 µM.

Regarding `O=C(O)c1ccc(N2CC(=O)N(S(=O)(=O)c3ccc(Cl)cc3)C2=O)cc1`, the IC50 on Cathepsin G is over 100 µM; against Chymotrypsinogen A, 42 µM.

With `COc1ccc(S(=O)(=O)N2C(=O)CN(c3ccccc3)C2=O)cc1`, the values for the IC50 against Cathepsin G and on Chymotrypsinogen A were 4.2 µM and 5.8 µM, respectively.

In the case of `CN1CCN(C(=O)c2ccc(S(=O)(=O)N3C(=O)CN(c4ccccc4)C3=O)cc2)CC1`, the concentration for half-maximal inhibition (IC50) against Chymase was found to be 3.3 µM; at Chymotrypsinogen A, 6.4 µM.

For `O=C1CN(c2ccccc2)C(=O)N1S(=O)(=O)Cc1ccccc1`, the IC50 at Chymase was over 100 µM; against Chymotrypsinogen A it was 37 µM.

`O=C1CN(c2ccccc2)C(=O)N1C(=O)c1ccccc1`: the half-inhibitory concentration (IC50) against Cathepsin G was 7 µM; at Chymase it was 20 µM; against Chymotrypsinogen A it was 0.048 µM.

In the case of `O=C1CN(S(=O)(=O)c2ccc(Cl)cc2)C(=O)N1c1ccc(Cl)cc1`, the half-maximal inhibitory concentration (IC50) on Chymase and against Chymotrypsinogen A was over 100 µM in each case.

`O=C1CN(c2ccccn2)C(=O)N1S(=O)(=O)c1ccc(Cl)cc1`: the figures for the IC50 against Chymase and against Chymotrypsinogen A were 18 µM and over 100 µM, respectively.

Take `O=C1CN(c2ccccc2)C(=O)N1C(=O)c1ccc(Cl)cc1`: the values for the IC50 against Cathepsin G, at Chymase and against Chymotrypsinogen A were 3 µM, over 100 µM and 0.23 µM, respectively.

The values above are taken from ChEMBL document CHEMBL1130085, “Substituted 3-(phenylsulfonyl)-1-phenylimidazolidine-2,4-dione derivatives as novel nonpeptide inhibitors of human heart chymase” (J Med Chem, 1997).
